Assay results reported in patent publication US8865744B1, “(Cyano-dimethyl-methyl)-isoxazoles and -[1,3,4]thiadiazoles” (Boehringer Ingelheim International GmbH, priority 2013, dated 2014).
Where two headings read alike, the source gives them in different places.

Legend:
human CB2R = target: T1, human CB2R (Homo sapiens, UniProt P34972); experiment: CB2 cAMP (Assay 1): In vitro testing of CB2 potency; type: cell-based
T1 construct: host or cells: CHO cells

human CB1R = target: T2, human CB1R (Homo sapiens, UniProt P21554); experiment: CB1 cAMP (Assay 2): In vitro testing of CB1 potency; type: cell-based
T2 construct: host or cells: CHO cells
T2 sequence (P21554 whole entry): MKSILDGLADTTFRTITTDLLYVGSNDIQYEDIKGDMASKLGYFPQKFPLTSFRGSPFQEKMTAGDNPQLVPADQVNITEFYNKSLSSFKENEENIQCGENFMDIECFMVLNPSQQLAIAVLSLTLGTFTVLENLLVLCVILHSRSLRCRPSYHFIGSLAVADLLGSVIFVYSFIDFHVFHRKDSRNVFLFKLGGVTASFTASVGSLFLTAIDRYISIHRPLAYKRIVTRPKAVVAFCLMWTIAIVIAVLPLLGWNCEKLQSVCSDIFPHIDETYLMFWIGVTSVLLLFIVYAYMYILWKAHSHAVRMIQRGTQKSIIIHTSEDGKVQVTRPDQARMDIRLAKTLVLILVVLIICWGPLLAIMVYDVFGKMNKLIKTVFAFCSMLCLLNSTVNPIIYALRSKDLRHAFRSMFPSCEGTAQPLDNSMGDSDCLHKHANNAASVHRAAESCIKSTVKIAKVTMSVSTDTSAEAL

T1 sequence (P34972 whole entry): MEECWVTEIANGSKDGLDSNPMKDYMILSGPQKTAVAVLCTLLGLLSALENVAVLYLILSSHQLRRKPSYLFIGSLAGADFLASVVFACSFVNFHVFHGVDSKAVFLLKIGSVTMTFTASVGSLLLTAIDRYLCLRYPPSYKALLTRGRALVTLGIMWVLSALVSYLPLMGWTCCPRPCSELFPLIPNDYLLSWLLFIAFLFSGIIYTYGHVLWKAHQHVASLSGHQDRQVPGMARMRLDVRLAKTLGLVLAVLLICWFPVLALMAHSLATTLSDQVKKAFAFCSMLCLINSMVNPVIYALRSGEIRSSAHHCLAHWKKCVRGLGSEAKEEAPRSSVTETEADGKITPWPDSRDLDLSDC

Structure (SMILES) | EC50 (human CB2R; read-out: CB2 EC50) [nM] | EC50 (human CB2R) [nM] | EC50 (human CB1R) [nM] | EC50 (human CB1R; read-out: CB1 EC50) [nM]
CC(C)(CO)c1cc(NC(=O)C(C)(C)S(=O)(=O)CC2CCOCC2)on1 [Example 1 in WO2010036630] | 88 | – | – | –
CC(C)(C#N)c1cc(NC(=O)C(C)(C)S(=O)(=O)CCCC(F)(F)F)on1 [Example 1, N-[3-(Cyano-dimethyl-methyl)-isoxazol-5-yl]-2-methyl-2-(4,4,4-trifluoro-butane-1-sulfonyl)-propionamide] | – | 18 | 104000 | –
CC(C)(CO)c1cc(NC(=O)C(C)(C)S(=O)(=O)C2CCOCC2)on1 [Example 2 in WO2010036630] | – | – | 150000 | –
CC(C)(C#N)c1cc(NC(=O)C(C)(C)S(=O)(=O)CC2CCOCC2)on1 [Example 2, N-[3-(Cyano-dimethyl-methyl)-isoxazol-5-yl]-2-methyl-2-(tetrahydro-pyran-4-ylmethanesulfonyl)-propionamide] | – | 104 | > 200000 | –
CC(C)(C#N)c1cc(NC(=O)C(C)(C)S(=O)(=O)C2CCOCC2)on1 [Example 3] | 8 | – | – | > 200000
CN(CC1CCOCC1)C(C)(C)C(=O)Nc1cc(C(C)(C)C#N)no1 [Example 4] | 0.36 | – | – | 39400
CN(C1CCN(S(C)(=O)=O)CC1)C(C)(C)C(=O)Nc1cc(C(C)(C)C#N)no1 [Example 5] | 0.23 | – | – | 2500
CN(CC1CCOCC1)C(C)(C)C(=O)Nc1cc(C(C)(C)CO)no1 [Example 7 in WO2010147792] | 0.68 | – | – | 8080
CN(CC1CCOCC1)C(C)(C)C(=O)Nc1nnc(C(C)(C)C#N)s1 [Example 7, N-[5-(Cyano-dimethyl-methyl)-[1,3,4]thiadiazol-2-yl]-2-methyl-2-[methyl(tetrahydro-pyran-4-ylmethyl)-amino]-propionamide] | – | 25 | > 200000 | –
CN(C1CCN(S(C)(=O)=O)CC1)C(C)(C)C(=O)Nc1nnc(C(C)(C)C#N)s1 [Example 8] | – | 4.3 | 69000 | –
COCC(C)(C)c1cc(NC(=O)C(C)(C)S(=O)(=O)CC2CCOCC2)on1 [Example 17 in WO2010036630] | – | 30 | 8600 | –
CN(CC1CCOCC1)C(C)(C)C(=O)Nc1nnc(C(C)(C)CO)s1 [Example 30 in WO2010147792] | 5.4 | – | – | 120000
COCC(C)(C)c1cc(NC(=O)C(C)(C)N(C)CC2CCOCC2)on1 [Example 46 in WO2010147792] | 0.27 | – | – | 923
CN(C1CCN(S(C)(=O)=O)CC1)C(C)(C)C(=O)Nc1cc(C(C)(C)CO)no1 [Example 47 in WO2010147792] | 0.85 | – | – | 3100
CC(C)(O)c1cc(NC(=O)C(C)(C)S(=O)(=O)C2CCOCC2)on1 [Example 133 WO2010036630] | – | 140 | > 200000 | –
